Reference: patent US20150031572A1, “MEANS AND METHODS FOR ASSESSING NEURONAL TOXICITY” (priority 2012, published 2015)
Counter-ions that a name gives are not always drawn. Marks after values point to notes of the source that are not given here.

Test: Plasma metabolite profiling (GC-MS, LC-MS, SPE-LC-MS) of rats dosed once daily over 28 days; treatment ratios versus untreated control
Type: in vivo, rat
Outline: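 Male and female rats (5/sex/group) dosed once daily for 28 days; fasted anaesthetized animals bled retro-orbitally (EDTA plasma) on days 7, 14, 28, stored −80 °C under N2. Polar and lipid fractions profiled by GC-MS (derivatized), LC-MS/MRM; steroids by online SPE-LC-MS. Pool-normalized data; treatment ratios vs sex-matched controls, Welch test p-values.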

[1] = plasma, female rats, day 7, high dose, Table 4a
[2] = plasma, female rats, day 7, high dose, Table 4b
[3] = plasma, female rats, day 7, high dose, Table 6c
[4] = plasma, female rats, day 7, high dose, Table 6d
[5] = plasma, female rats, day 14, high dose, Table 4a
[6] = plasma, female rats, day 14, high dose, Table 4b
[7] = plasma, female rats, day 14, high dose, Table 6c
[8] = plasma, female rats, day 14, high dose, Table 6d
[9] = plasma, female rats, day 28, high dose, Table 4a
[10] = plasma, female rats, day 28, high dose, Table 4b
[11] = plasma, female rats, day 28, high dose, Table 6c
[12] = plasma, female rats, day 28, high dose, Table 6d
[13] = plasma, male rats, day 7, high dose, Table 3a
[14] = plasma, male rats, day 7, high dose, Table 3b
[15] = plasma, male rats, day 14, high dose, Table 3a
[16] = plasma, male rats, day 14, high dose, Table 3b
[17] = plasma, male rats, day 28, high dose, Table 3a
[18] = plasma, male rats, day 28, high dose, Table 3b

O=C1Cc2cc(CCN3CCN(c4nsc5ccccc45)CC3)c(Cl)cc2N1 [Ziprasidone hydrochloride]
Ceramide (d18:1,C24:1), ratio versus control [1]: 1.23
Docosapentaenoic acid (C22:cis[7,10,13,16,19]5), ratio versus control [1]: 2.26*
Elaidic acid (C18:trans[9]1), ratio versus control [1]: 1.52*
Galactose, lipid fraction, ratio versus control [1]: 1.46*
Myristic acid (C14:0), ratio versus control [1]: 1.53*
Phosphatidylcholine (C16:0,C16:0), ratio versus control [1]: 1.4*
Progesterone, ratio versus control [1]: 9.81*
TAG No 07, ratio versus control [1]: 3.4*
Creatinine, ratio versus control [2]: 0.87
Glutamate, ratio versus control [2]: 0.67*
Glycine, ratio versus control [2]: 0.86*
Lactate, ratio versus control [2]: 0.6*
Myristic acid (C14:0), ratio versus control [2]: 1.53
Normetanephrine, ratio versus control [2]: 0.73*
Phosphocreatine, ratio versus control [2]: 0.61*
Serotonin (5-HT), ratio versus control [2]: 0.11*
Uric acid, ratio versus control [2]: 0.51*
4-Hydroxysphinganine (t18:0, Phytosphingosine), total, ratio versus control [3]: 1.49*
Docosahexaenoic acid (C22:cis[4,7,10,13,16,19]6), ratio versus control [3]: 1.7*
Docosapentaenoic acid (C22:cis[7,10,13,16,19]5), ratio versus control [3]: 2.26*
Galactose, lipid fraction, ratio versus control [3]: 1.46*
Palmitic acid (C16:0), ratio versus control [3]: 1.56*
Phosphatidylcholine (C16:0,C16:0), ratio versus control [3]: 1.4*
Phosphatidylcholine (C16:0,C22:6), ratio versus control [3]: 1.02
Phosphatidylcholine No 02, ratio versus control [3]: 1.17*
TAG (C16:0,C16:1), ratio versus control [3]: 4.38*
TAG (C16:0,C18:1,C18:3), ratio versus control [3]: 2.8*
TAG (C16:0,C18:2), ratio versus control [3]: 2.47*
TAG (C18:2,C18:2), ratio versus control [3]: 2.44*
TAG (C18:2,C18:3), ratio versus control [3]: 3.48*
TAG (C18:3,C18:2,C18:1), ratio versus control [3]: 3.89*
TAG No 059, ratio versus control [3]: 3.12*
4-Hydroxyphenylpyruvate, ratio versus control [4]: 0.42*
Glycine, ratio versus control [4]: 0.86*
Lactate, ratio versus control [4]: 0.6*
Lysophosphatidylcholine (C16:0), ratio versus control [4]: 0.99*
Uric acid, ratio versus control [4]: 0.51*
Ceramide (d18:1,C24:1), ratio versus control [5]: 1.47*
Docosapentaenoic acid (C22:cis[7,10,13,16,19]5), ratio versus control [5]: 1.55*
Elaidic acid (C18:trans[9]1), ratio versus control [5]: 0.97
Galactose, lipid fraction, ratio versus control [5]: 1.17*
Myristic acid (C14:0), ratio versus control [5]: 1.09
Phosphatidylcholine (C16:1,C18:2), ratio versus control [5]: 1.06
Progesterone, ratio versus control [5]: 1.28
TAG No 07, ratio versus control [5]: 0.62
myo-Inositol, lipid fraction, ratio versus control [5]: 1.26*
Creatinine, ratio versus control [6]: 1.02
Glutamate, ratio versus control [6]: 0.71*
Glycine, ratio versus control [6]: 0.86*
Lactate, ratio versus control [6]: 0.66
Myristic acid (C14:0), ratio versus control [6]: 1.09
Normetanephrine, ratio versus control [6]: 0.88
Serotonin (5-HT), ratio versus control [6]: 0.59
Uric acid, ratio versus control [6]: 0.5*
4-Hydroxysphinganine (t18:0, Phytosphingosine), total, ratio versus control [7]: 1.43*
Docosahexaenoic acid (C22:cis[4,7,10,13,16,19]6), ratio versus control [7]: 1.43*
Docosapentaenoic acid (C22:cis[7,10,13,16,19]5), ratio versus control [7]: 1.55*
Galactose, lipid fraction, ratio versus control [7]: 1.17*
Phosphatidylcholine (C16:0,C20:5), ratio versus control [7]: 0.99
Phosphatidylcholine (C16:0,C22:6), ratio versus control [7]: 1.22*
Phosphatidylcholine (C16:1,C18:2), ratio versus control [7]: 1.06
Phosphatidylcholine No 02, ratio versus control [7]: 1.19*
TAG (C16:0,C16:1), ratio versus control [7]: 0.81
TAG (C16:0,C18:1,C18:3), ratio versus control [7]: 0.76
TAG (C16:0,C18:2), ratio versus control [7]: 0.91
TAG (C18:2,C18:2), ratio versus control [7]: 0.81
TAG (C18:2,C18:3), ratio versus control [7]: 0.76
TAG (C18:3,C18:2,C18:1), ratio versus control [7]: 0.91
TAG No 059, ratio versus control [7]: 0.84
4-Hydroxyphenylpyruvate, ratio versus control [8]: 0.21*
Glycine, ratio versus control [8]: 0.86*
Lactate, ratio versus control [8]: 0.66
Lysophosphatidylcholine (C16:0), ratio versus control [8]: 1
Uric acid, ratio versus control [8]: 0.5*
Ceramide (d18:1,C24:1), ratio versus control [9]: 1.2
Docosapentaenoic acid (C22:cis[7,10,13,16,19]5), ratio versus control [9]: 1.54*
Elaidic acid (C18:trans[9]1), ratio versus control [9]: 1.18
Galactose, lipid fraction, ratio versus control [9]: 1.22
Myristic acid (C14:0), ratio versus control [9]: 1.18
Phosphatidylcholine (C16:1,C18:2), ratio versus control [9]: 1.5*
Progesterone, ratio versus control [9]: 2.41*
TAG No 07, ratio versus control [9]: 1.02
myo-Inositol, lipid fraction, ratio versus control [9]: 1.2
Creatinine, ratio versus control [10]: 0.89*
Glutamate, ratio versus control [10]: 0.76*
Glycine, ratio versus control [10]: 0.91
Lactate, ratio versus control [10]: 0.62*
Myristic acid (C14:0), ratio versus control [10]: 1.18
Normetanephrine, ratio versus control [10]: 0.95
Phosphocreatine, ratio versus control [10]: 0.47
Serotonin (5-HT), ratio versus control [10]: 1.37
Uric acid, ratio versus control [10]: 0.73*
Docosahexaenoic acid (C22:cis[4,7,10,13,16,19]6), ratio versus control [11]: 1.26
Docosapentaenoic acid (C22:cis[7,10,13,16,19]5), ratio versus control [11]: 1.54*
Galactose, lipid fraction, ratio versus control [11]: 1.22
Palmitic acid (C16:0), ratio versus control [11]: 1.2*
Phosphatidylcholine (C16:0,C20:5), ratio versus control [11]: 1.17*
Phosphatidylcholine (C16:1,C18:2), ratio versus control [11]: 1.5*
Phosphatidylcholine No 02, ratio versus control [11]: 1.2*
TAG (C16:0,C16:1), ratio versus control [11]: 1.75*
TAG (C16:0,C18:1,C18:3), ratio versus control [11]: 1.3*
TAG (C16:0,C18:2), ratio versus control [11]: 1.38*
TAG (C18:2,C18:3), ratio versus control [11]: 1.46*
TAG (C18:3,C18:2,C18:1), ratio versus control [11]: 1.44*
TAG No 059, ratio versus control [11]: 1.58*
4-Hydroxyphenylpyruvate, ratio versus control [12]: 1.02
Glycine, ratio versus control [12]: 0.91
Lactate, ratio versus control [12]: 0.62*
Lysophosphatidylcholine (C16:0), ratio versus control [12]: 0.98*
Uric acid, ratio versus control [12]: 0.73*
3-Methoxytyrosine, ratio versus control [13]: 1.12
Arginine, ratio versus control [13]: 1.22*
Tryptophan, ratio versus control [13]: 1.1
Glycine, ratio versus control [14]: 0.82*
Threonic acid, ratio versus control [14]: 0.66*
Arginine, ratio versus control [15]: 1.11*
myo-Inositol-2-phosphate, lipid fraction, ratio versus control [15]: 1.44*
Glycine, ratio versus control [16]: 0.95
Threonic acid, ratio versus control [16]: 0.52*
3-Methoxytyrosine, ratio versus control [17]: 1.47*
Arginine, ratio versus control [17]: 0.98
Tryptophan, ratio versus control [17]: 1.18*
myo-Inositol-2-phosphate, lipid fraction, ratio versus control [17]: 1.63*
Glycine, ratio versus control [18]: 0.86*
Threonic acid, ratio versus control [18]: 0.63*
3-Methoxytyrosine, ratio versus control (rat, in vivo): 1.33*
4-Hydroxysphinganine (t18:0, Phytosphingosine), total, ratio versus control (rat, in vivo): 1.16*
Palmitic acid (C16:0), ratio versus control (rat, in vivo): 1.12*
Phosphatidylcholine (C16:0,C16:0), ratio versus control (rat, in vivo): 1.32*
Phosphatidylcholine (C16:0,C20:5), ratio versus control (rat, in vivo): 1.05*
Phosphatidylcholine (C16:0,C22:6), ratio versus control (rat, in vivo): 1.15*
Phosphatidylcholine (C16:1,C18:2), ratio versus control (rat, in vivo): 1.41*
TAG (C18:2,C18:2), ratio versus control (rat, in vivo): 1.41*
Tryptophan, ratio versus control (rat, in vivo): 1.16*
myo-Inositol, lipid fraction, ratio versus control (rat, in vivo): 1.41*
myo-Inositol-2-phosphate, lipid fraction, ratio versus control (rat, in vivo): 1.41*
